According to patent US20080108655A1, “Drug composition and method for treating malaria and malignancy” (priority 2005, published 2008):

Columns and labels:
[1] = system: drug-resistant P. falciparum; experiment: in vitro chemosensitization/resistance-reversal (C/RR) potency, strain not stated; type: cell-based
Method: (§1) All in vitro studies were 72 hour growth inhibition assays, starting with 0.2% parasitemia, 2% hematocrit under standard culture conditions in 96 well microplates. Growth was quantified using the fluorescence-based assay developed in our lab (Smilkstein et al; Antimicrobial Agents and Chemotherapy 2004;48:1803-1806). EC50 determined by non-linear regression curve fitting (sigmoidal dose-response, variable slope equation) using GraphPad Prism software. Isobolograms and EC50,75 and 90 estimates computed using CalcuSyn software (Biosoft, T. C. Chou).

[2] = human, in vivo; cited from earlier work
[3] = human, in vivo; cited from earlier work; remark: listed apart in the source
[4] = system: P. falciparum Dd2 (multidrug resistant)
Method: as §1
(§2) 2. […] In the following figures, fixed-ratio combinations of 2 drugs are made at the concentrations of each described in the figure legend (Fivelman, Adagu and Warhurst. Antimicrobial Agents and Chemotherapy 2004;48:4097-4102). Then, in quadruplicate, each of these combinations is diluted serially 2-fold, yielding one curve for each starting mixture. The data are expressed using the concentration of the antimalarial of interest on the X axis. […] In each starting combination, an increase of one drug is accompanied by a corresponding decrease in the other. As a result, overlapping curves indicate an additive relationship; a shift to the left, synergy; and a shift to the right, antagonism. • b. One representative isobologram from each of the experiments is included to the right of the figure, showing lines predictive of EC50,75 and 90 if the combinations were additive in effect. Points falling to the lower left of the predictive lines indicate synergy; those on or near the line, additive effects.

[5] = system: P. falciparum W2 (chloroquine-resistant); experiment: 72 hour growth inhibition assay, fluorescence-based, strain W2; type: cell-based; settings: fixed-ratio combinations, isobologram
Method: as §1
as §2, with “One representative isobologram from each of the experiments is included to the right of the figure, showing lines predictive of EC50,75 and 90 if the combinations were additive in effect. Points falling to the lower left of the predictive lines indicate synergy; those on or near the line, additive effects.” left out

[6] = system: P. falciparum D6 (CQ sensitive, mefloquine resistant); experiment: 72 hour growth inhibition assay, fluorescence-based, strain D6; type: cell-based
Method: as §1
as §2, with “One representative isobologram from each of the experiments is included to the right of the figure, showing lines predictive of EC50,75 and 90 if the combinations were additive in effect. Points falling to the lower left of the predictive lines indicate synergy; those on or near the line, additive effects.” left out

CQ-resistant P. chabaudi = settings: mice, drug alone
[7] = system: drug-resistant P. falciparum; settings: imipramine vs desipramine; amitriptyline vs nortriptyline; cited from earlier work

SMILES: CN(C)CCC(c1ccc(Cl)cc1)c1ccccn1 (racemic) [chlorpheniramine]
- C/RR potency of the (+/−) and (+) forms compared ([1]; in vitro): equipotent
- typical serum concentrations in clinical use [2]: < 100 nM
- sedation as side effect [3]: consistently causes drowsiness

SMILES: Cc1ccccc1C(OCCN(C)C)c1ccccc1 (racemic) [orphenadrine]
- interaction with mefloquine ([4]; Dd2, resistant to mefloquine): synergistic
- interaction with quinine ([4]; Dd2, resistant to quinine): synergistic
- interaction with CQ ([4]; Dd2, fixed-ratio combinations, isobologram): synergistic
- interaction with CQ [5]: synergistic
- interaction with mefloquine ([6]; D6, resistant to mefloquine): synergistic
- interaction with CQ ([6]; D6, fixed-ratio combinations, isobologram): not against CQ sensitive D6
- effect on sensitivity to quinine or mefloquine ([1]; strains resistant to those drugs): increases sensitivity to quinine or mefloquine
- parasitemia at completion of 4 treatment days (CQ-resistant P. chabaudi): decreased parasitemia
- sedation as side effect [3]: does not typically cause sedation

SMILES: CN(C)CCC(c1ccc(Cl)cc1)c1ccccn1 (single isomer, unassigned; (-)) [(−)CP]
- C/RR activity ([1]; in vitro): active

SMILES: CN(C)CCC(c1ccc(Br)cc1)c1ccccn1 (stereo not drawn) [BP, brompheniramine]
- C/RR potency of the (+/−) and (+) forms compared ([1]; in vitro): equipotent

SMILES: CN(C)CCC=C1c2ccccc2CCc2ccccc21 [amitriptyline]
- resistance-reversal potency, dimethylamine vs monomethylamine pair [7]: no substantial difference

SMILES: CNCCCN1c2ccccc2CCc2ccccc21 [desipramine]
- resistance-reversal potency, dimethylamine vs monomethylamine pair [7]: no substantial difference
- typical serum concentrations in clinical use [2]: 100 to 500 nM

SMILES: CN(C)CCCN1c2ccccc2CCc2ccccc21 [imipramine]
- resistance-reversal potency, dimethylamine vs monomethylamine pair [7]: no substantial difference

SMILES: CNCCC=C1c2ccccc2CCc2ccccc21 [nortriptyline]
- resistance-reversal potency, dimethylamine vs monomethylamine pair [7]: no substantial difference

SMILES: CN(C)CCC(c1ccccc1)c1ccccn1 (stereo not drawn) [pheniramine]
- concentrations achieved in clinical use relative to BP or CP [2]: roughly 20 fold
- sedation as side effect [3]: shares sedation as a side effect
